Measurements taken from patent publication US10842892B2, “Methods and apparatus for synthesizing imaging agents, and intermediates thereof” (Lantheus Medical Imaging, Inc., priority 2010, dated 2020).
Several values for one entry are separate records, joined by “and”; a condition that tells them apart may be missing. Equal values may be shown once.

System: healthy adults
Assay: radiation dosimetry after single injection at rest (OLINDA/EXM, MIRD)
Type: in vivo, human
Experimental: This was a non-randomized, open-label, single-dose study. A total of 13 healthy adult subjects were enrolled and administered a single dose of imaging agent 1 at a single study center in the United States. Subjects were screened within 14 days prior to enrollment to confirm subject eligibility, and began baseline assessments at the study center the day before study drug administration. Subjects remained at the study center until completion of the Study Day 2 safety assessments (24±8 hours post-dose). A telephone call was made to study subjects 48±8 hours post-dose for adverse event (AE) monitoring. All subjects returned to the study center approximately one week (5-7 days) post-dose for a follow-up safety visit, and were contacted by telephone approximately 14-17 days post-dose for final serious AE monitoring.
On day 1, each subject received a 1-3 mL intravenous bolus injection of imaging agent 1 in a sterile solution of ≤5% ethanol containing ≤50 mg/mL sodium ascorbate in water, calculated to deliver approximately the target dose of imaging agent 1 at the time of injection. The dose was administered in less than 10 seconds, followed immediately by a 3-5 mL saline flush.
Dosimetry analyses. Estimates of radiation dosimetry for the standard organs of the adult male and female models and for the, salivary glands as well as the effective dose equivalent (EDE) (International Commission on Radiological Protection (ICRP), Recommendations of the International Commission on Radiological Protection, Publication 26. Ann ICRP. 1977; 1(3)) and the effective dose (ED) (International Commission on Radiological Protection (ICRP), 1990 Recommendations of the International Commission on Radiological Protection, 60. Ann ICRP. 1990; 21(1-3)) were determined using the OLINDA/EXM software (Stabin, M G, Sparks, R B, et al, OLINDA/EXM: the second-generation personal computer software for internal dose assessment in nuclear medicine.” J Nucl Med 2005 46(6):1023-7) Assessment of radiation dosimetry was based on the MIRD method, with data derived from imaging studies, using methods consistent with MIRD Pamphlet no. 16 (Siegel J A, Thomas S R, Stubbs J B, et al. MIRD pamphlet no. 16: Techniques for quantitative radiopharmaceutical biodistribution data acquisition and analysis for use in human radiation dose estimates. J Nucl Med. 1999 February; 40(2):37S-61S).
The attenuation corrected transverse image data slice planes were combined into a single three-dimensional image matrix for each subject and each time point using custom software. These images were then divided into 6 image sets (“anterior”, “posterior”, “salivary”, “thyroid”, “source”, and “full”) of combined coronal plane image data for each subject at each time point, grouping organs with similar anterior to posterior depths. This was done to optimize the ROI creation, and minimize background contribution to the organs contained in each combined coronal plane image. The “anterior” images contained stomach wall, heart wall, and urinary bladder. The “posterior” images contained kidneys, lumbar spine, and spleen (when visible). The “salivary” images contained the salivary glands (parotid and submandibular). The “thyroid” images contained the thyroid. The “full” images combined all of the coronal image planes that contained subject image data and was used for quantification of the brain and liver. The “source” images contained the calibration source.
Absolute radioactivity was determined by normalizing ROI sums by a calibration factor derived from the calibration source. Region counts were also adjusted for activity containing underlying and overlying tissue that was not part of the organ or tissue being quantified by utilization of background regions of interest. Total body region counts were also corrected for off body background counts. Appropriate normalization of region sizes for organ and adjacent regions were made. […]

[1] = N = 12, Void Interval = 3.5 hours

SMILES: CC(C)(C)n1ncc(OCc2ccc(COCC[18F])cc2)c(Cl)c1=O [imaging agent 1, 2-t-butyl-4-chloro-5-[4-(2-(^18F)fluoroethoxymethyl)-benzyloxy]-2H-pyridazin-3-1]
- mean ED (N = 12): 0.072 rem/mCi
- mean absorbed dose, heart wall (N = 12): 0.18 rem/mCi
- mean absorbed dose, kidneys (critical organ) (N = 12): 0.24 rem/mCi
- ED, Mean [1]: 0.019 mSv/MBq and 1.9E−02 mSv/MBq
- EDE, Mean [1]: 2.2E−02 mSv/MBq
- absorbed dose estimate, Mean, Brain [1]: 2.5E−02 mSv/MBq
- absorbed dose estimate, Mean, Breasts [1]: 8.8E−03 mSv/MBq
- absorbed dose estimate, Mean, Gallbladder Wall [1]: 1.7E−02 mSv/MBq
- absorbed dose estimate, Mean, Heart Wall [1]: 0.048 mSv/MBq and 4.8E−02 mSv/MBq
- absorbed dose estimate, Mean, Kidneys [1]: 0.066 mSv/MBq and 6.6E−02 mSv/MBq
- absorbed dose estimate, Mean, LLI Wall [1]: 1.2E−02 mSv/MBq
- absorbed dose estimate, Mean, Liver [1]: 3.9E−02 mSv/MBq
- absorbed dose estimate, Mean, Lungs [1]: 1.1E−02 mSv/MBq
- absorbed dose estimate, Mean, Muscle [1]: 1.0E−02 mSv/MBq
- absorbed dose estimate, Mean, Osteogenic Cells [1]: 1.9E−02 mSv/MBq
- absorbed dose estimate, Mean, Ovaries [1]: 1.2E−02 mSv/MBq
- absorbed dose estimate, Mean, Pancreas [1]: 1.6E−02 mSv/MBq
- absorbed dose estimate, Mean, Red Marrow [1]: 1.6E−02 mSv/MBq
- absorbed dose estimate, Mean, Salivary [1]: 3.5E−02 mSv/MBq
- absorbed dose estimate, Mean, Skin [1]: 7.9E−03 mSv/MBq
- absorbed dose estimate, Mean, Small Intestine [1]: 1.3E−02 mSv/MBq
- absorbed dose estimate, Mean, Spleen [1]: 1.6E−02 mSv/MBq
- absorbed dose estimate, Mean, Stomach Wall [1]: 4.0E−02 mSv/MBq
- absorbed dose estimate, Mean, Testes [1]: 9.2E−03 mSv/MBq
- absorbed dose estimate, Mean, Thymus [1]: 1.1E−02 mSv/MBq
- absorbed dose estimate, Mean, Thyroid [1]: 3.2E−02 mSv/MBq
- absorbed dose estimate, Mean, Total Body [1]: 1.2E−02 mSv/MBq
- absorbed dose estimate, Mean, ULI Wall [1]: 1.3E−02 mSv/MBq
- absorbed dose estimate, Mean, Urinary Bladder Wall [1]: 2.3E−02 mSv/MBq
- absorbed dose estimate, Mean, Uterus [1]: 1.2E−02 mSv/MBq
- maximum injected dose without exceeding 1 rem ED (in vivo): 14 mCi
- maximum injected dose without exceeding 10 mSv (1 rem) ED (in vivo): 521 MBq
- maximum injected dose without exceeding 50 mSv to the critical organ (kidneys): 770 MBq
